Measured values from patent US10801035B2, “Plants having increased tolerance to herbicides” (BASF SE, priority 2011, dated 2020).

Legend:
Wild type soybean plants = experiment: Greenhouse herbicide spray test, non-transformed soybean cuttings; assay type: in vivo, Glycine max; details: Wild type (no transgene), two weeks after herbicide treatment
Description: (§1) Transgenic plants expressing heterologous HPPD or HST enzymes are tested for tolerance against coumarone-derivative herbicides in greenhouse experiments.
(§2) For post emergence treatment, the test plants are first grown to a height of 3 to 15 cm, depending on the plant habit, and only then treated with the herbicides. For this purpose, the test plants are either sown directly and grown in the same containers, or they are first grown separately and transplanted into the test containers a few days prior to treatment.
(§3) For testing of T0 plants, cuttings can be used. In the case of soybean plants, an optimal shoot for cutting is about 7.5 to 10 cm tall, with at least two nodes present. Each cutting is taken from the original transformant (mother plant) and dipped into rooting hormone powder (indole-3-butyric acid, IBA). The cutting is then placed in oasis wedges inside a bio-dome. Wild type cuttings are also taken simultaneously to serve as controls. The cuttings are kept in the biodome for 5-7 days and then transplanted to pots and then acclimated in the growth chamber for two more days. Subsequently, the cuttings are transferred to the greenhouse, acclimated for approximately 4 days, and then subjected to spray tests as indicated.
Depending on the species, the plants are kept at 10-25° C. or 20-35° C. The test period extends over 3 weeks. During this time, the plants are tended and their response to the individual treatments is evaluated. Herbicide injury evaluations are taken at 2 and 3 weeks after treatment. Plant injury is rated on a scale of 0 to 9, 0 being no injury and 9 being complete death. Tolerance to coumarone-derivative herbicides can also be assessed in Arabidopsis. In this case transgenic Arabidopsis thaliana plants are assayed for improved tolerance to coumarone-derivative herbicides in 48-well plates. […] Seven to ten days after seeding growth inhibition is evaluated by comparison to wild type plants. Tolerance factor is calculated by dividing the plant growth IC50 value of transgenic plants containing a HPPD and/or HST sequence by that of wildtype plants. […]

[1] = system: transgenic soybean plants (T0 cuttings) expressing heterologous HPPD; experiment: Greenhouse testing of transgenic soybean plants (T0 cuttings); assay type: in vivo, Glycine max; design: key: % injury: 0% = no injury, 100% = complete death; details: two weeks after treatment
Description: as §1, §2, §3
Depending on the species, the plants are kept at 10-25° C. or 20-35° C. The test period extends over 3 weeks. During this time, the plants are tended and their response to the individual treatments is evaluated. Herbicide injury evaluations are taken at 2 and 3 weeks after treatment. Plant injury is rated on a scale of 0 to 9, 0 being no injury and 9 being complete death. Tolerance to coumarone-derivative herbicides can also be assessed in Arabidopsis. In this case transgenic Arabidopsis thaliana plants are assayed for improved tolerance to coumarone-derivative herbicides in 48-well plates. Seeds are surface sterilized by stirring for 5 min in ethanol+water (70+30 by volume), rinsing one time with ethanol+water (70+30 by volume) and two times with a sterile, deionized water. The seeds are resuspended in 0.1% agar dissolved in water (w/v). Four to five seeds per well are plated on solid nutrient medium consisting of half-strength Murashige Skoog nutrient solution, pH 5.8 (Murashige and Skoog (1962) Physiologia Plantarum 15: 473-497). Compounds are dissolved in dimethylsulfoxid (DMSO) and added to the medium prior solidification (final DMSO concentration 0.1%). Multi well plates are incubated in a growth chamber at 22° C., 75% relative humidity and 110 μmol Phot * m-2 * s-1 with 14: 10 h light: dark photoperiod. Seven to ten days after seeding growth inhibition is evaluated by comparison to wild type plants. Tolerance factor is calculated by dividing the plant growth IC50 value of transgenic plants containing a HPPD and/or HST sequence by that of wildtype plants. Additionally, T1 and T2 transgenic Arabidopsis plants can be tested for improved tolerance to coumarone-derivative herbicides in a greenhouse studies. Herbicide injury scoring is done 2-3 weeks after treatment and is rated on a scale of 0 to 100%, 0% being no injury and 100% being complete death.

`CC1=NOC(c2c(Cl)ccc(C3=C(O)c4ncccc4N(CC(F)F)S3(=O)=O)c2Cl)C1` (stereo not drawn) [Inhibitor 1, 3-[2,4-dichloro-3-(3-methyl-4,5-dihydroisoxazol-5-yl)phenyl]-1-(2,2-difluoroethyl)-2,2-dioxo-pyrido[3,2-c]thiazin-4-ol] was tested, and the Injury evaluation (Wild type soybean plants; dose 62 g/ha) was 26, the Injury evaluation (Wild type soybean plants; dose 125 g/ha) was 44 and the Injury evaluation (Wild type soybean plants; dose 250 g/ha) was 68. The Injury evaluation ([1]; event AV4283 (probably Synechococcus HPPD**, marked: tested at a half rate), dose line 62 g/ha) was 20, the Injury evaluation ([1]; event AV4283 (probably Synechococcus HPPD**, marked: tested at a half rate), dose line 125 g/ha) was 20 and the Injury evaluation ([1]; event AV4283 (probably Synechococcus HPPD**, marked: tested at a half rate), dose line 250 g/ha) was 20. It also gave an Injury evaluation ([1]; event AV4287 (marked: tested at a half rate), dose line 62 g/ha) of 0, an Injury evaluation ([1]; event AV4287 (marked: tested at a half rate), dose line 125 g/ha) of 0 and an Injury evaluation ([1]; event AV4287 (marked: tested at a half rate), dose line 250 g/ha) of 0. For the same molecule, the Injury evaluation ([1]; event AV4553 (Hordeum HPPD), dose 62 g/ha) was 0, the Injury evaluation ([1]; event AV4553 (Hordeum HPPD), dose 125 g/ha) was 10 and the Injury evaluation ([1]; event AV4553 (Hordeum HPPD), dose 250 g/ha) was 10. For the same molecule, the Injury evaluation ([1]; event HT1833 (Arabidopsis HPPD_M335H, plastidic), dose 62 g/ha) was 0, the Injury evaluation ([1]; event HT1833 (Arabidopsis HPPD_M335H, plastidic), dose 125 g/ha) was 5 and the Injury evaluation ([1]; event HT1833 (Arabidopsis HPPD_M335H, plastidic), dose 250 g/ha) was 5. For the same molecule, the Injury evaluation ([1]; event LG5831** (Arabidopsis HPPD_M335H, plastidic), marked: tested at a half rate, dose line 62 g/ha) was 0, the Injury evaluation ([1]; event LG5831** (Arabidopsis HPPD_M335H, plastidic), marked: tested at a half rate, dose line 125 g/ha) was 0 and the Injury evaluation ([1]; event LG5831** (Arabidopsis HPPD_M335H, plastidic), marked: tested at a half rate, dose line 250 g/ha) was 0. For the same molecule, the Injury evaluation ([1]; event LG6156 (Synechocystis HPPD), dose 62 g/ha) was 0, the Injury evaluation ([1]; event LG6156 (Synechocystis HPPD), dose 125 g/ha) was 10 and the Injury evaluation ([1]; event LG6156 (Synechocystis HPPD), dose 250 g/ha) was 10. The Injury evaluation ([1]; event LJ383, dose 62 g/ha) was 10, the Injury evaluation ([1]; event LJ383, dose 125 g/ha) was 10 and the Injury evaluation ([1]; event LJ383, dose 250 g/ha) was 20. For the same molecule, the Injury evaluation ([1]; event LJ387 (Hordeum HPPD), dose 62 g/ha) was 0, the Injury evaluation ([1]; event LJ387 (Hordeum HPPD), dose 125 g/ha) was 0 and the Injury evaluation ([1]; event LJ387 (Hordeum HPPD), dose 250 g/ha) was 0. The Injury evaluation ([1]; event LJ409, dose 62 g/ha) was 10, the Injury evaluation ([1]; event LJ409, dose 125 g/ha) was 10 and the Injury evaluation ([1]; event LJ409, dose 250 g/ha) was 15.
